Molecules are shown by their SMILES. Activity calls are given as the source filed them.

The values that follow come from ChEMBL document CHEMBL1128645, “Synthesis and antiviral activity of phosphonate derivatives of enantiomeric dihydro-2H-pyranyl nucleosides” (Bioorg Med Chem Lett, 1995).

The nature of series [1]: Half life at pH 3. The class given is ADME. The note with it: buffer.
The test system of series [2] is Human immunodeficiency virus 2. Kind of series: Antiviral activity against human immunodeficiency virus(HIV-2); no activity. The class given is functional, organism-based.
Series [3] deals with Human immunodeficiency virus 1. In words: Antiviral activity against human immunodeficiency virus(HIV-1); no activity. The class given is functional, organism-based.
For the next series, the system named is Cytomegalovirus. In words: Antiviral activity against cytomegalovirus (CMV); no activity. The class given is functional, organism-based.
Another series concerns Human alphaherpesvirus 3. In words: Antiviral activity against Varicella-Zoster virus (VZV); no activity. The class given is functional, organism-based.
In another series the test system is Human alphaherpesvirus 2. In words: Antiviral activity against herpes simplex virus (HSV-2); no activity. The class given is functional, organism-based.
The subject of the next series is Human alphaherpesvirus 1. Kind of series: Antiviral activity against herpes simplex virus (HSV-1); no activity. The class given is functional, organism-based.

Regarding `Nc1nc(O)c2ncn([C@H]3C=C[C@@H](OCP(=O)(O)O)CO3)c2n1`, in series [1], the half-life (commonly the time needed for the level to fall by half in the phase considered) was 300 min.

`Nc1nc(O)c2ncn([C@H]3C=C[C@@H](OCP(=O)(O)O)OC3)c2n1`: the result (in series [2]; in series [3]; in the series with Cytomegalovirus; in the series with Human alphaherpesvirus 3; in the series on Human alphaherpesvirus 2; in the series with Human alphaherpesvirus 1) was inactive.

For the molecule `Nc1nc(O)c2ncn([C@@H]3C=C[C@H](OCP(=O)(O)O)OC3)c2n1`, the result (in series [2]; in series [3]; in the series on Cytomegalovirus; with Human alphaherpesvirus 3; in the series with Human alphaherpesvirus 2; in the series with Human alphaherpesvirus 1) was inactive.
